# From patent publication US20160243056A1, “Sustained Release Formulations Containing Methylglyoxal and Their Therapeutic Applications” (priority 2013, published 2016)
# Read-outs that look alike come from different tables or passages of the source.
# Columns and labels:
# Mitochondrial Complex I = conditions: cited from earlier work
# sarcoma-180 cells [1] = assay: Measurement of tumor volume, Sarcoma-180 tumour in left hind leg of mice; format: in vivo, Swiss albino female mice; conditions: bare methylglyoxal 20 mg/kg body weight/day iv, five days a week
# Description: In the present invention, effect of modified nanomethylGlyoxal, against tumor in mice, have been studied. Briefly, Swiss albino female mice aged 4-6 weeks weighing 18-20 g were taken. Each group contained four mice. Tumors were developed in the left hind leg of a mouse by intra-muscular injection of sarcoma-180 cells (approximately 2×10^6 cells in each mouse). Each set of experiment was repeated 4 times. Drug was administered to the mice intravenously, five days a week. Polymer conjugated methylglyoxal (Nano-MG) was administered intravenously at an amount of 0.4 mg/kg body weight/day. One group received bare methylglyoxal (20 mg/kg body weight/day). Drug was administered after 72 hours of inoculation of Sarcoma-180 tumour in the treated group. Treatment was continued for four weeks.
# peritoneal macrophages [2] = assay: Peritoneal macrophage count in treated mice; format: in vivo; conditions: for Peritoneal macrophage Count (×10^6): bare MG 20 mg/kg body weight/day iv
# Description: Values in the bracket denote dose at mg/kg body wt/day • Ehrlich ascites carcinoma (EAC) cells developed in the intraperitoneal cavity of mouse were collected in different time intervals. After washing with normal saline the cells were re-suspended in phosphate buffered saline. […] Number of Sarcoma-180 cells inoculated to each mouse was 1×10^6. The tumor bearing mice were treated with modified nano-methylglyoxal (present formulation) in normal saline through intravenous route to study the tumor growth inhibition by nano-methylglyoxal. Treatment started after 7 days of inoculation in mice intravenously with 50 μl nanoMG in solution (containing 5 μg methylglyoxal). Mice in the negative control group were similarly treated intravenously with normal saline and the positive control groups were treated intravenously with bare methylglyoxal (20 mg/kg body weight/day) in normal saline. Each group contained six mice. Each set of experiment was repeated four times. melatonin (0.25 mg/kg body weight/day), creatine (150 mg/kg body weight/day) and Ascorbic acid (50 mg/kg body weight/day) were fed orally to each mouse everyday. Treatment was given with single daily dose for consecutive 12 days. […] Treatment started after 7 days of inoculation in mice intravenously with 50 μl nanoMG in solution (containing 5 μg methylglyoxal). Treatment was continued for 20 doses (six doses per week) in 23 days. Melatonin (0.25 mg/kg body weight/day), creatine (150 mg/kg body weight/day) and Ascorbic acid (50 mg/kg body weight/day) were fed orally to each mouse. • d) Solid tumor bearing mice treated with nanoMG as described previously were sacrificed for the isolation of macrophages. Briefly, RPMI-1640 was injected in the peritoneal cavity of mouse and peritoneal macrophages were isolated and centrifuged and resuspended in RPMI-1640+10% FBS and used further for immunomodulatory studies. […] In the present invention, effect of modified nanomethylGlyoxal, against tumor in mice, have been studied. Briefly, Swiss albino female mice aged 4-6 weeks weighing 18-20 g were taken. Each group contained four mice. […]
# peritoneal macrophages [3] = assay: Superoxide anion generation (production of reduced NBT) by peritoneal macrophages; format: in vivo, mice; conditions: bare MG 20 mg/kg body weight/day iv
# Description: Values in the bracket denote dose at mg/kg body wt/day • Ehrlich ascites carcinoma (EAC) cells developed in the intraperitoneal cavity of mouse were collected in different time intervals. After washing with normal saline the cells were re-suspended in phosphate buffered saline. […] Number of Sarcoma-180 cells inoculated to each mouse was 1×10^6. The tumor bearing mice were treated with modified nano-methylglyoxal (present formulation) in normal saline through intravenous route to study the tumor growth inhibition by nano-methylglyoxal. Treatment started after 7 days of inoculation in mice intravenously with 50 μl nanoMG in solution (containing 5 μg methylglyoxal). Mice in the negative control group were similarly treated intravenously with normal saline and the positive control groups were treated intravenously with bare methylglyoxal (20 mg/kg body weight/day) in normal saline. Each group contained six mice. Each set of experiment was repeated four times. melatonin (0.25 mg/kg body weight/day), creatine (150 mg/kg body weight/day) and Ascorbic acid (50 mg/kg body weight/day) were fed orally to each mouse everyday. Treatment was given with single daily dose for consecutive 12 days. […] Treatment started after 7 days of inoculation in mice intravenously with 50 μl nanoMG in solution (containing 5 μg methylglyoxal). Treatment was continued for 20 doses (six doses per week) in 23 days. […]
# Sarcoma-180 cells [4] = conditions: sarcoma-180 cells injected concomitantly with Methylglyoxal; cited from earlier work
# [5] = system: Glyceraldehyde-3-Phospahte Dehydrogenase; conditions: cited from earlier work
# [6] = system: Ehrlich ascites carcinoma (EAC) cells; assay: Tumor growth inhibition of EAC cells inoculated intraperitoneally in mice (Trypan Blue cell count); format: in vivo
# Description: The Effect of Nano-Methylglyoxal on the Excessive Proliferation of Cancerous Cells in Mice was Investigated as Follows: • a) Mice bearing Ehrlich ascites carcinoma cells (No. of EAC cell inoculated each mouse=1×10^6) were treated intravenously with nano-methylglyoxal in normal saline to observe the effect of cell proliferation. Treatment started after 24 hrs, of inoculation in mice intravenously with three different doses of nanoMG in solution. In first group every day each mouse received 25 μl nanoMG solution (containing 2.5 μg methylglyoxal), in second group each mouse received 50 μl nanoMG solution (containing 5 μg methylglyoxal) and in third group each mouse received 100 μl nanoMG solution (containing 10 μg methylglyoxal). Mice in the negative control group were similarly treated intravenously with normal saline and the positive control groups were treated intravenously with bare methylglyoxal (20 mg/kg body weight/day) in normal saline. Each group contains six mice. Each set of experiment was repeated four times. Melatonin (0.25 mg/kg body weight/day), creatine (150 mg/kg body weight/day) and Ascorbic acid (50 mg/kg body weight/day) were fed orally to each mouse. Treatment was continued for consecutive 8 days (Table-5, Table-6). […]
# Sarcoma = assay: Sarcoma-bearing mice: Creatine content, CK activity and tumor size; format: in vivo
# Excerpt: We also investigated the status of Creatine and CK in a few post-operative tissue samples from human patients, and similar to the results of animal tissues, the Creatine content and CK activity were much reduced in both human Fibrosarcoma and Gastro-Intestinal Tract Malignancy, compared to healthy control tissues.
# L1236 = conditions: cited from earlier work
# [7] = system: Ehrlich Ascites Carcinoma (EAC) cells; assay: Oral Melatonin on EAC cells implanted intra-peritoneally in female mice; format: in vivo; conditions: Melatonin 50 mg/kg body wt.
# Excerpt: With these rationales, Melatonin has been applied to treat cancer in both animal and human in our laboratory and has shown significant improvement over the formulations without Melatonin. […] The effects of oral supplementation of Melatonin on growth of Ehrlich Ascites Carcinoma (EAC) cells implanted intra-peritoneally in female mice were studied in our lab. […] It has strong antioxidant properties and anticancer and onco-static action. Melatonin has potential anticancer activity whether given alone or in association with cancer chemotherapy. […] In this study, 30 patients with untreatable metastatic solid tumors were treated with daily 30 mg oral Melatonin in conjunction with low doses of antitumor cytokines. […] In addition Melatonin may have other biological effects, which could be useful in palliative therapy of Cancer.
smiles,measurement,setting,value
"CC(=O)C=O [Bare-methylglyoxal, Methylglyoxal]",Enzyme inhibition,Mitochondrial Complex I; enzyme of malignant cells,inhibits
same,Enzyme inhibition,Mitochondrial Complex I; enzyme of normal cells,no inhibitory effect
same,Sarcoma-180 + Bare-MG Volume of tumour (c.c.),sarcoma-180 cells [1]; day 12,1 ± 0.1 c.c.
same,Sarcoma-180 + Bare-MG Volume of tumour (c.c.),sarcoma-180 cells [1]; day 16,1.4 ± 0.05 c.c.
same,Sarcoma-180 + Bare-MG Volume of tumour (c.c.),sarcoma-180 cells [1]; day 21,2 ± 0.15 c.c.
same,Sarcoma-180 + Bare-MG Volume of tumour (c.c.),sarcoma-180 cells [1]; day 26,2 ± 0.17 c.c.
same,Sarcoma-180 + Bare-MG Volume of tumour (c.c.),sarcoma-180 cells [1]; day 31,2.73 ± 0.27 c.c.
same,Macrophage count increase with respect to untreated tumour bearing batch,peritoneal macrophages [2]; bare-MG treated mice (20 mg/kg/day iv),two fold in bare-MG treated mice
same,Peritoneal macrophage Count (×10^6),peritoneal macrophages [2]; normal mice,10.88 ± 1.15 ×10^6
same,Peritoneal macrophage Count (×10^6),peritoneal macrophages [2]; sarcoma tumour bearing mice,12.91 ± 1.46 ×10^6
same,Superoxide anion generation Production of reduced NBT,peritoneal macrophages [3]; normal mice,243 ± 2.82 µmol
same,Superoxide anion generation Production of reduced NBT,peritoneal macrophages [3]; sarcoma tumour bearing mice,317.5 ± 10.60 µmol
same,Tumor development,Sarcoma-180 cells [4],No tumor developed
same,Enzyme inhibition,[5]; enzyme of malignant cells,inhibits
same,Enzyme inhibition,[5]; enzyme of normal cells,no inhibitory effect
same,No. of cells on day 9,"[6]; Bare-methylglyoxal 20 mg/kg body weight/day iv, 8 consecutive doses from day 1, in million cells",29 ± 2.9
CN(CC(=O)O)C(=N)N [Creatine],Effect of Creatine administration on the effect of Methylglyoxal and Ascorbic Acid,Sarcoma,significantly augmented
"NC1=NCCN1CC(=O)O [Cyclocreatine, cyclocreatine]",Inhibition of proliferation,L1236,nearly entirely
COc1ccc2[nH]cc(CCNC(C)=O)c2c1 [Melatonin],Effect of introducing melatonin on tumor growth inhibition of EAC cells,"[6]; melatonin in combination with ascorbic acid and creatine, with modified NanoMG",2. Efficacy is enhanced further when melatonin is introduced in combination with ascorbic acid and creatine for tumor growth inhibition of EAC cells in mice
same,Survival of the treated mice,[7],increased the survival
same,Viability and volume of Ehrlich Ascites Carcinoma cells,[7],reduced the viability and volume
